# Source: ChEMBL document CHEMBL5046285, “Probing Fluorinated Motifs onto Dual AChE-MAO B Inhibitors: Rational Design, Synthesis, Biological Evaluation, and Early-ADME Studies” (J Med Chem, 2022)
# What was measured:
# [1] = molecular target: T1, Amine oxidase [flavin-containing] B (Homo sapiens, UniProt P27338); assay: Reversible inhibition of human recombinant MAO-B expressed in supersomes using kynuramine as substrate at 10 nM co-incubated with enzyme and measured over 6 hrs by spectrophotometric method; conditions: 0.01 µM
# T1 sequence (P27338 whole entry): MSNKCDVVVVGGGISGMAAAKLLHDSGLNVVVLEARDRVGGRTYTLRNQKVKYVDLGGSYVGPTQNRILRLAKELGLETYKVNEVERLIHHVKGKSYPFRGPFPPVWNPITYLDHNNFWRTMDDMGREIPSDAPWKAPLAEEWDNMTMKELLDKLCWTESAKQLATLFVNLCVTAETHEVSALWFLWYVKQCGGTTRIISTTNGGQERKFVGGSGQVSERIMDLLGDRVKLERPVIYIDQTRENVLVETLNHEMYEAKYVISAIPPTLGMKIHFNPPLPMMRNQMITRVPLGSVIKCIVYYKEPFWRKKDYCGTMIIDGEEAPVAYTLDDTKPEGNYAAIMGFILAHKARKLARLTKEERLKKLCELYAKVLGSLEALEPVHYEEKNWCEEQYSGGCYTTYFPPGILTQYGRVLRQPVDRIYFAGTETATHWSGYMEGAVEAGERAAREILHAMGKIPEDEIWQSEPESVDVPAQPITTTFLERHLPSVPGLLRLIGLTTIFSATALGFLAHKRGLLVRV
# [2] = Chromatographic hydrophobicity index of the compound in ammonium acetate buffer at pH 7.4 by RP-HPLC analysis; format: physicochemical
# [3] = Effective permeability of the compound in PBS buffer at pH 7.4 by PAMPA-BBB assay; format: ADME; conditions: read-out: Peff
# [4] = test system: HepG2; assay: Cytotoxicity against human HepG2 cells assessed as reduction in cell viability at 1 to 100 uM incubated for 4 hrs by CellTiter-Glo luminescence assay; format: toxicity, cell-based; conditions: hepg2, 4 h, dose 1-100 µM
# [5] = Intrinsic clearance in mouse liver microsomes at 0.5 uM incubated upto 30 mins in presence of NADPH measured per mg protein by LC/MS/MS analysis; format: ADME, Microsome; conditions: read-out: CLH
# [6] = Kinetic aqueous solubility of the compound in PBS incubated for 2 hrs under mild shaking at pH 7.4 by UV- vis spectrophotometric analysis; format: physicochemical; conditions: read-out: Kinetic_solubility
# [7] = test system: SH-SY5Y; assay: Cytotoxicity against human SH-SY5Y cells assessed as reduction in cell viability at 1 to 100 uM incubated for 4 hrs by CellTiter-Glo luminescence assay; format: toxicity, cell-based; conditions: dose 1-100 µM
# [8] = 1-Octanol/PBS buffer distribution coefficient, log D of the compound at 1 uM measured after 24 hrs at pH 7.4 by shake flask based HPLC-ES-MS/MS analysis; format: physicochemical
# [9] = molecular target: Acetylcholinesterase (Homo sapiens, UniProt P22303)
# Description: Inhibition of human recombinant AChE by Ellman's spectrophotometric assay
# [10] = Microsomal stability in mouse liver microsomes assessed as half life at 0.5 uM incubated upto 30 mins in presence of NADPH by LC/MS/MS analysis; format: ADME, Microsome
# [11] = molecular target: Cytochrome P450 3A4 (Homo sapiens, UniProt P08684); assay: Inhibition of human recombinant CYP3A4 expressed in baculosomes by fluorescent homogenous assay; format: ADME
# [12] = molecular target: T1, Amine oxidase [flavin-containing] B
# Description: Inhibition of human recombinant MAO-B expressed in supersomes assessed as inhibition of 4-hydroxyquinoline formation using kynuramine as substrate by spectrofluorimetric analysis
# [13] = molecular target: Cholinesterase (Equus caballus, UniProt P81908)
# Description: Inhibition of horse serum BChE by Ellman's spectrophotometric assay
# [14] = molecular target: T2, Amine oxidase [flavin-containing] A (Homo sapiens, UniProt P21397)
# T2 sequence (P21397 whole entry): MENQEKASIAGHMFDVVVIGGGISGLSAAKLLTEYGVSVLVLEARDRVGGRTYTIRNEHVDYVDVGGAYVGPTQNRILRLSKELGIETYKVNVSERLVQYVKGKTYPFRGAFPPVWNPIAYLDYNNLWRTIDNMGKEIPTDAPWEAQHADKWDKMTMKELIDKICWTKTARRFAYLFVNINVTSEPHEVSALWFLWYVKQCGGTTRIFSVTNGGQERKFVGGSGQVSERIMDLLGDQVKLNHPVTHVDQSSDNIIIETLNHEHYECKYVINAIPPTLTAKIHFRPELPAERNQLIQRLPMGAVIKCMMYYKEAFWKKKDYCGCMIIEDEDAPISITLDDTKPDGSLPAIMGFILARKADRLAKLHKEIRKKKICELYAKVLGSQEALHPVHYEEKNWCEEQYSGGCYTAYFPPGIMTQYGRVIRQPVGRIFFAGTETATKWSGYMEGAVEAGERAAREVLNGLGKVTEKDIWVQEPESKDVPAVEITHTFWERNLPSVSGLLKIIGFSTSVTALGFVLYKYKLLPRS
# Description: Inhibition of human recombinant MAO-A expressed in supersomes assessed as inhibition of 4-hydroxyquinoline formation using kynuramine as substrate by spectrofluorimetric analysis
# [15] = organism: Homo sapiens; assay: Selectivity for human recombinant MAO-B expressed in supersomes over human recombinant MAO-A expressed in supersomes
# [16] = molecular target: T3, MAO-A (Homo sapiens, UniProt P21397); assay: in vitro; conditions: recombinant MAO-A expressed in supersomes, probe kynuramine
# T3 sequence (P21397 whole entry): T2 sequence (P21397 whole entry)
# [17] = molecular target: Albumin (Homo sapiens, UniProt P02768); assay: Binding affinity to human serum albumin assessed as dissociation […] constant by surface plasmon resonance assay; format: ADME, cell-free
# [18] = Apparent permeability across apical to basolateral side in human Caco-2 cells at 10 uM incubated for 60 mins by HPLC-MS/MS method; format: ADME, cell-based
# [19] = Intrinsic clearance in human liver microsomes at 0.5 uM incubated upto 60 mins in presence of NADPH measured per mg protein by LC/MS/MS analysis; format: ADME, Microsome; conditions: read-out: CLH
# [20] = Efflux ratio of apparent permeability across basolateral to apical side over apical to basolateral side in human Caco-2 cells; format: ADME, cell-based
# [21] = Apparent permeability across basolateral to apical side in human Caco-2 cells at 10 uM incubated for 60 mins by HPLC-MS/MS method; format: ADME, cell-based
# [22] = Microsomal stability in human liver microsomes assessed as half life at 0.5 uM incubated upto 60 mins in presence of NADPH by LC/MS/MS analysis; format: ADME, Microsome
# [23] = molecular target: Cholinesterase (Equus caballus) (UniProt P81908); assay: Inhibition of horse serum BChE at 10 uM by Ellman's spectrophotometric assay; format: cell-free
# [24] = molecular target: T1, Amine oxidase [flavin-containing] B; assay: Inhibition of human recombinant MAO-B expressed in supersomes assessed as inhibition of 4-hydroxyquinoline formation using kynuramine as substrate by spectrophotometric method
# Chain of Acetylcholinesterase (P22303 whole entry): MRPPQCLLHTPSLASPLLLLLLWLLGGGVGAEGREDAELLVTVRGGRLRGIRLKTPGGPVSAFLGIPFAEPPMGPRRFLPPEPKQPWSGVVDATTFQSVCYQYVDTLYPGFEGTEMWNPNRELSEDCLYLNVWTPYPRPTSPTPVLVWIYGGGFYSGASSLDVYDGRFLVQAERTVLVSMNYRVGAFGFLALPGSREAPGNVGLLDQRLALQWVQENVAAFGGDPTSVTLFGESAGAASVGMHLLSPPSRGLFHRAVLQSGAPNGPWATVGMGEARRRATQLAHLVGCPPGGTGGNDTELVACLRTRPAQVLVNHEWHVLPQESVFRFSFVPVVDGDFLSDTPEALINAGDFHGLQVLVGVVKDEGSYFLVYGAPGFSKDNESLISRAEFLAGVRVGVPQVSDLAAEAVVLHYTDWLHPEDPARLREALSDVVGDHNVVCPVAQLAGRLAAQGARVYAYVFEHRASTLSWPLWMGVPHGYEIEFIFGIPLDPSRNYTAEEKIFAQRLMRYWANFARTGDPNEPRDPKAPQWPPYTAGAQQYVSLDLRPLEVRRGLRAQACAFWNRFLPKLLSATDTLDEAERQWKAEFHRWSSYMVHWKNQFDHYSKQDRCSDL
# Chain of Cholinesterase (Equus caballus) (P81908 whole entry): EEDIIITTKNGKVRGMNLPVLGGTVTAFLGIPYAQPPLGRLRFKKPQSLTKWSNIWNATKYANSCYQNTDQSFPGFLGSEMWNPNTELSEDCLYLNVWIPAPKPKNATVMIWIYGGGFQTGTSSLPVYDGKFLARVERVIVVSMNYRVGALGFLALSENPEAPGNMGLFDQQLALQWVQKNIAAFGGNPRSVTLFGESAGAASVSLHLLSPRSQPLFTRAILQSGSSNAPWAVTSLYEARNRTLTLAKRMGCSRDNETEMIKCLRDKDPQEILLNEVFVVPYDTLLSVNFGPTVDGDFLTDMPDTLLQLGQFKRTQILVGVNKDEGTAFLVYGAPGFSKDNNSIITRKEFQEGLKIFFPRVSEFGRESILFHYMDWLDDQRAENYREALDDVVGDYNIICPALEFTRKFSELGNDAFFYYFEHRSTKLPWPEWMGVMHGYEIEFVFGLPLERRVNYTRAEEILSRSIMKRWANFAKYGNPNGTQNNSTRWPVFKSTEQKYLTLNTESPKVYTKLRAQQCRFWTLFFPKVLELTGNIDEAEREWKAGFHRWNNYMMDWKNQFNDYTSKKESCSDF
# Chain of Cholinesterase (P81908 whole entry): as above
# Chain of Cytochrome P450 3A4 (P08684 whole entry): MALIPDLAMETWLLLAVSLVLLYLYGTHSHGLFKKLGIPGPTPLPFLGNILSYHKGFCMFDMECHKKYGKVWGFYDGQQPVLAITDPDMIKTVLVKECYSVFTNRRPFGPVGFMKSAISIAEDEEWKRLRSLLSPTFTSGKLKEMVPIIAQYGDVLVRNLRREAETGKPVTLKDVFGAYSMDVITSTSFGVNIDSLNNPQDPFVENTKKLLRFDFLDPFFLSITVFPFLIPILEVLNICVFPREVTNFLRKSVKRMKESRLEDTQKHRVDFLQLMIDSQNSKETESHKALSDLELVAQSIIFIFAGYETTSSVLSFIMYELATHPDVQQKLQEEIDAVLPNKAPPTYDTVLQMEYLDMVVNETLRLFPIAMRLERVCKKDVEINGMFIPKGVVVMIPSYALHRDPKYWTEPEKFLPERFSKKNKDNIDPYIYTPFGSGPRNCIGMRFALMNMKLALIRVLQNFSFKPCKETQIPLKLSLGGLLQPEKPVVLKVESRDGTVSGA
# Chain of Albumin (P02768 whole entry): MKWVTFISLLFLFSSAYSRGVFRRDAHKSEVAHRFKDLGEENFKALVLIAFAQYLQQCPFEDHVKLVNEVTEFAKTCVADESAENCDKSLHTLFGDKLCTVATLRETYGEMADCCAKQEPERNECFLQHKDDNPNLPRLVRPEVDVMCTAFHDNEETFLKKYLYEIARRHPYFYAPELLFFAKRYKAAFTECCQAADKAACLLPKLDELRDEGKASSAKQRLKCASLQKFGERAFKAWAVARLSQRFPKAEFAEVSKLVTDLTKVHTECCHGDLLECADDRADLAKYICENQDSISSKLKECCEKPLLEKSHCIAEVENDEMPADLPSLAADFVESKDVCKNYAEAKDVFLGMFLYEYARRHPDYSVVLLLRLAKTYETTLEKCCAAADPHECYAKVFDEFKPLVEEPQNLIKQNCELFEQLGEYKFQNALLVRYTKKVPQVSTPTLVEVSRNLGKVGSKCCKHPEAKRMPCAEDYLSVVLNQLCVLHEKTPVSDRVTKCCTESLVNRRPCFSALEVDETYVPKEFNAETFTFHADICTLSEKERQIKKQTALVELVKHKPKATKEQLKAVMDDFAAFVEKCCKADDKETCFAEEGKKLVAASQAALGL
SMILES,CHI [2],Papp [3] [×10⁻⁶ cm/s],microsomal CLint at 0.5 µM [5] [µL/min/mg],solubility kinetic at 2 h [6] [µM],"logD at 24 h, 1 µM [8]",IC50 [9] [nM],half-life at 0.5 µM [10] [min],IC50 [12] [nM],IC50 [13] [nM],IC50 [14] [nM],other results
C[C@H](NCc1ccc(OCc2cccc(F)c2)cc1)C(N)=O [SAFINAMIDE],–,–,–,–,–,–,–,–,–,–,inhibition (INH) [1]: Active
Cc1c(C)c2ccc(OCC3CCCN(CCCO)C3)cc2oc1=O (racemic),48.8,7.2,15.1,> 500,1.15,1100,92.4,–,–,–,Activity [4]: Non-Toxic; Activity [7]: Non-Toxic
Cc1c(C)c2ccc(OCc3cccc(CN(C)CCCC(F)F)c3)cc2oc1=O,> 100,–,289,13,3.65,1700,4.8,560,1600,4200,IC50 [11]: 600 nM
CN(Cc1ccccc1)Cc1ccc(COc2ccc3c(C(F)F)cc(=O)oc3c2)cc1,> 100,–,142,0.4,4.8,560,9.8,130,430,–,Selectivity Index [15]: > 73; inhibition at 10 µM [16]: 17%
Cc1c(C)c2ccc(OCC3CCN(CCCO)CC3)cc2oc1=O,47.3,6,29.5,> 500,0.86,–,47.2,–,–,–,"IC50 [11]: > 10000 nM; Kd [17]: 31700 nM; Papp A→B at 1 h, 10 µM [18]: 19 ×10⁻⁶ cm/s; Activity [4]: Non-Toxic; microsomal CLint at 0.5 µM [19]: < 11.5 µL/min/mg; Activity [7]: Non-Toxic; efflux ratio [20]: 1.2; inhibition at 10 µM [16]: 50%; Papp B→A at 1 h, 10 µM [21]: 22 ×10⁻⁶ cm/s; half-life at 0.5 µM [22]: > 120 min"
Cc1c(C)c2ccc(OCCCN(Cc3cccc(F)c3)C(C)C)cc2oc1=O,> 100,–,–,13,–,910,–,350,–,8100,inhibition [23]: 22%; inhibition (INH) [24]: Active
Cc1c(C)c2ccc(OCC3CCN(CCCC(F)F)CC3)cc2oc1=O,73.4,10.8,116,448,2.34,1200,11.9,530,–,–,"IC50 [11]: 800 nM; Papp A→B at 1 h, 10 µM [18]: 17 ×10⁻⁶ cm/s; microsomal CLint at 0.5 µM [19]: 14.1 µL/min/mg; inhibition [23]: 8%; efflux ratio [20]: 1; inhibition at 10 µM [16]: 40%; Papp B→A at 1 h, 10 µM [21]: 16 ×10⁻⁶ cm/s; half-life at 0.5 µM [22]: 98.9 min"
CN(Cc1ccccc1)Cc1ccc(COc2ccc3c(CO)cc(=O)oc3c2)cc1,99.3,–,43.9,–,3.81,–,31.7,–,–,–,–
Cc1c(C)c2ccc(OCC3CCCN(CCCC(F)F)C3)cc2oc1=O (racemic),83.4,13.3,78.1,349,2.67,480,17.8,260,–,11000,IC50 [11]: > 10000 nM; inhibition [23]: 22%
Cc1c(C)c2ccc(OCC3CCCN(Cc4cccc(F)c4)C3)cc2oc1=O (racemic),> 100,10,210,20,4.38,1200,6.6,12,2000,2000,–
Cc1c(C)c2ccc(OCC3CCN(Cc4cccc(F)c4)CC3)cc2oc1=O,> 100,–,225,11,3.43,460,6.2,140,2900,2500,inhibition (INH) [24]: Active
Cc1c(C)c2ccc(OCC3CCN(Cc4cccc(C(F)(F)F)c4)CC3)cc2oc1=O,> 100,–,146,0.9,5.05,470,9.5,130,–,1400,inhibition [23]: 35%
Cc1c(C)c2ccc(OCc3ccc(CN(C)CCCC(F)F)cc3)cc2oc1=O,> 100,–,–,13,3.78,1500,–,160,4100,–,inhibition at 10 µM [16]: 45%
CN(CCCO)Cc1ccc(COc2ccc3c(CO)cc(=O)oc3c2)cc1,35.6,3.1,–,> 500,–,2200,–,420,–,–,inhibition [23]: 27%; inhibition at 10 µM [16]: 13%
CCN(CCCOc1ccc2c(C)c(C)c(=O)oc2c1)Cc1cccc(F)c1,> 100,–,260,18,–,1200,5.3,73,4300,7800,–
Cc1c(C)c2ccc(OCC3CCN(Cc4ccccc4)CC3)cc2oc1=O,99.7,–,206,57,3.4,380,6.7,–,–,–,"Papp A→B at 1 h, 10 µM [18]: 7 ×10⁻⁶ cm/s; efflux ratio [20]: 1.6; Papp B→A at 1 h, 10 µM [21]: 12 ×10⁻⁶ cm/s"
Cc1c(C)c2ccc(OCC3CCCN(Cc4ccccc4)C3)cc2oc1=O (racemic),> 100,–,265,33,3.65,–,5.3,–,–,–,–
